Source: ChEMBL document CHEMBL2321874, “Small-molecular, non-peptide, non-ATP-competitive polo-like kinase 1 (Plk1) inhibitors with a terphenyl skeleton” (Bioorg Med Chem, 2013)
≈ marks a conversion by molar mass, not a printed value.

Columns and labels:
[1] = Solubility of the compound; assay type: physicochemical
[2] = biological target: Serine/threonine-protein kinase PLK1 (Homo sapiens) (UniProt P53350); test: Inhibition of human recombinant N-terminal GST-tagged Plk1 at 250 uM
Chain of Serine/threonine-protein kinase PLK1 (Homo sapiens) (P53350 whole entry): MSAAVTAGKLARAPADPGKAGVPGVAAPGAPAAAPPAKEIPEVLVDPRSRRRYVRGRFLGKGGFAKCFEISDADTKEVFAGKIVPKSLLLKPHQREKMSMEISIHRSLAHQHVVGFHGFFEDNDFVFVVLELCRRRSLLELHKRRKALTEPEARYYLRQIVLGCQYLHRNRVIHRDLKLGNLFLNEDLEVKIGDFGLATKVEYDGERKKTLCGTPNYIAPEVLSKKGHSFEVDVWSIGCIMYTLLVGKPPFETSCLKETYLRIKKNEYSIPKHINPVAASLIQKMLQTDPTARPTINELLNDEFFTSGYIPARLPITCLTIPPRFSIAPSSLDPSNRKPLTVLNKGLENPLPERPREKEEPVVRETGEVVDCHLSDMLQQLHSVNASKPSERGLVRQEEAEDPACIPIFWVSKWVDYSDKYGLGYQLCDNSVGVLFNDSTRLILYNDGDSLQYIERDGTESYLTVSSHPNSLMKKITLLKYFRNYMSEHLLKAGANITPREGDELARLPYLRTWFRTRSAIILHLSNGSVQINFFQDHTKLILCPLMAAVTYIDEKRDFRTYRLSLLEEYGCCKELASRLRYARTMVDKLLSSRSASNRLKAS

solubility [1] [µM] | inhibition [2] [%] | Compound
100 (≈ 35.4 µg/mL) | – | Cc1cc(-c2ccc(C#N)cc2)c(OCCO)c(-c2ccc(C#N)cc2)c1
– | 0 | CNC(=O)Cc1ccc(-c2cc(C)cc(-c3ccc(CC(=O)NC)cc3)c2OCCO)cc1
